The values that follow are results of earlier work, collected in patent US11559510B2, “Isoflavonoid composition with improved pharmacokinetics” (NOXOPHARM LIMITED, priority 2016, dated 2023).

The conditions of data set [1]: cited from earlier work.
The subject of data set [2] is cancer cells. The settings on record: cited from earlier work.

Take `Oc1ccc(C2=Cc3ccc(O)cc3OC2)cc1` [Idronoxil, 2H-1-Benzopyran-7-0,1,3-(4-hydroxyphenyl)]: the plasma elimination half-life result in data set [1] (bolus IV administration) is “short”. In addition, in data set [1] (given orally, most patients), the “time after administration at which free idronoxil is detected in plasma” value is at most 30 min. In data set [1] (given orally), the absolute oral bioavailability result is listed as “low”. Besides, the “blood levels readily attained” value in data set [1] (humans treated both orally and intravenously) is 50 µM. Besides, the “concentration where it kills about 10% of the cancer cells (sensitising use)” value in data set [2] (cancer cells in cell culture) is 50 to 300 ng/mL. Also, in data set [2] (depending largely on the tumour type), the “concentration that kills 50% of cancer cells in cell culture (IC50)” value is 0.2 to 1.2 µg/mL. Also, in data set [2] (left in cancer cell culture for 2-3 hours and then removed), the “direct cytotoxic or sensitising effect when drug added in a pulsatile manner” value was “largely ineffective”.
